Where two headings read alike, the source gives them in different places.
Experiments:
NLuc = target: T1, NLuc (Oplophorus gracilirostris, UniProt Q9GV45, A31E/A60N/A81I/F95D/I117V/K70R/L54V/L99Q/M102K/N193R/P142E/Q151K/Q38R/Q45L/V71I/Y165I); type: biochemical; details: - ATP
T1 construct: His tag (inferred from IMAC purification); made in house; host or cells: E. coli
Outline: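 Luminescence was read 10 min after Nano-Glo reagent addition. Enzyme was 1 nM NLuc in PBS/0.05% IGEPAL buffer, with or without ATP.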

P. pyralis FLuc = P. pyralis FLuc (Photinus pyralis, UniProt P08659); assay: FLuc enzymatic luminescence assay, P. pyralis FLuc; type: biochemical; details: FLuc enzymatic assay; for IC50: read-out: IC50 or SDR50 (mM) FLuc E
Outline: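 Runs with and without 10 µM ATP: compounds were pre-incubated with FLuc (1–10 nM, PBS pH 7.4) at ambient temperature, light-protected, for 30–60 min. Luminescence was imaged 5 min after adding 10 µM D-luciferin (final). Inhibition was scaled between DMSO neutral and no-enzyme controls.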

FLuc-C-HiBiT = target: T2, FLuc-C-HiBiT (Photinus pyralis, UniProt P08659); assay: biochemical; details: enzyme activity, 10 uM ATP; read-out: IC50 or SDR50 (mM) / FLuc E
T2 construct: firefly luciferase with C-terminal HiBiT tag, E. coli expressed

[1] = target: FLuc-C-NLuc (firefly luciferase) (Photinus pyralis, UniProt P08659, form not given/L550V); assay: SDR assay, FLuc-C-NLuc; details: - ATP
[2] = target: FLuc-C-HiBiT (firefly luciferase) (Photinus pyralis, UniProt P08659, form not given/L550V); assay: SDR assay, FLuc-C-HiBiT; details: SDR max. response, clade S
Chain of FLuc-C-HiBiT (firefly luciferase) (P08659 2-550 L550V, form open): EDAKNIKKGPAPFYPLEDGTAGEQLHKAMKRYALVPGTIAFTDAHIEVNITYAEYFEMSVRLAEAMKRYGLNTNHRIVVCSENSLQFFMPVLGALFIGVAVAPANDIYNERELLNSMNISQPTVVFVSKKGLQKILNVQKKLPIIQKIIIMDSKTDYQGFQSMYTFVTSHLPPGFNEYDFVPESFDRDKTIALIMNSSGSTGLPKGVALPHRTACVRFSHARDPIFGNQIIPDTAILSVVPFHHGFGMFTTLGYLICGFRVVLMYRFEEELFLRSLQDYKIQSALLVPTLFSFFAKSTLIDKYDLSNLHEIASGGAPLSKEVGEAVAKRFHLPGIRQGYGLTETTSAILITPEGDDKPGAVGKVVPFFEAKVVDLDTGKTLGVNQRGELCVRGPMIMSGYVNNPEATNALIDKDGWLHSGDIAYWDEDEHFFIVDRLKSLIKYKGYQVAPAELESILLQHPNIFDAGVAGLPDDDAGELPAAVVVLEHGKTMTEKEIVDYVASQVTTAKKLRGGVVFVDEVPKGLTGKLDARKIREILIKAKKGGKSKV

T1 sequence (Q9GV45 other isoform, or with tags, fused parts or gaps with the stated changes): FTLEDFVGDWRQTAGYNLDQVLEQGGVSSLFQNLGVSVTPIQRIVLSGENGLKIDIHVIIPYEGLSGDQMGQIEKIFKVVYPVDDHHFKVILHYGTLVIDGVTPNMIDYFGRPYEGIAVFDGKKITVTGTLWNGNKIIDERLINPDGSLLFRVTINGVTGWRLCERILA
Chain of FLuc-C-NLuc (firefly luciferase) (P08659 2-550 L550V, form open): as the sequence (P08659 2-550 L550V, form open) above
Chain of P. pyralis FLuc (P08659 whole entry): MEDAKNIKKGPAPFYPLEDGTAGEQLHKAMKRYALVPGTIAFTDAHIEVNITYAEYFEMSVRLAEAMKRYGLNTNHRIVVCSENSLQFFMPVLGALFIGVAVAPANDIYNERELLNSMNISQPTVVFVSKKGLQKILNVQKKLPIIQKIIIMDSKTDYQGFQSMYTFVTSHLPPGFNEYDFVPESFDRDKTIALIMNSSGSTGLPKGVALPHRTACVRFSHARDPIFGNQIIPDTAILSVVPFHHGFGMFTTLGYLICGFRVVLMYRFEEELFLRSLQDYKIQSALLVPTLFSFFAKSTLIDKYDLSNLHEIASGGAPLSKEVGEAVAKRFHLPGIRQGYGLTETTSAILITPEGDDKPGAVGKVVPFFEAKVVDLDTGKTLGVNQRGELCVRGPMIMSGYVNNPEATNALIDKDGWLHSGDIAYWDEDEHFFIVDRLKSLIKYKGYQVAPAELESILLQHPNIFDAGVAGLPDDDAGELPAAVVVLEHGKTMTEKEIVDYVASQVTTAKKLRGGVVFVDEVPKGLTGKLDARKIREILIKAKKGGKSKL
T2 sequence (P08659 whole entry, looked up): as the sequence (P08659 whole entry) above

SMILES	Efficacy (%) NLuc (- ATP) (NLuc)	pIC50 or pSDR50 FLuc E (P. pyralis FLuc)	Efficacy (%) FLuc E (P. pyralis FLuc; Clade S follow-up)	IC50 (P. pyralis FLuc)	IC50 (FLuc-C-HiBiT)	Efficacy (%) FLuc-C-NLuc SDR (-ATP) [1]	% Activity (max response, + ATP) [2]	% Activity (max response, - ATP) [2]	pIC50 or pSDR50 NLuc (- ATP) (NLuc)	IC50 (NLuc; read-out: IC50 or SDR50 (mM) NLuc (- ATP))	pIC50 or pSDR50 FLuc E (P. pyralis FLuc; Clade S follow-up)	IC50 (P. pyralis FLuc; Clade S follow-up)
O=C(NCc1ccc2c(c1)OCO2)C1CCN(C(=O)c2ncn3c2COC(c2ccccc2)C3)CC1 (stereo not drawn) [NCGC00449781-01]	0.00%	5.51	-80.20%	0.00312 mM	0.007 mM	0.00%	220.59%	0.00%				
CSc1ccc(CNC(=O)C2CCN(C(=O)c3ncn4c3COC(c3ccccc3)C4)CC2)cc1 (stereo not drawn) [NCGC00449782-01]	-35.74%	5.26	-89.02%	0.00555 mM	0.00624 mM	0.00%	293.16%	0.00%	4.71	0.0197 mM		
O=C(NCc1ccccc1F)C1CCN(C(=O)c2ncn3c2COC(c2ccccc2)C3)CC1 (stereo not drawn) [NCGC00449783-01]	14.02%	5.41	-77.35%	0.00393 mM	0.00351 mM	0.00%	339.74%	0.00%				
O=C(NCc1ccc(F)cc1Cl)C1CCN(C(=O)c2ncn3c2COC(c2ccccc2)C3)CC1 (stereo not drawn) [NCGC00449789-01]	0.00%	5.01	-100.38%	0.00988 mM	0.00881 mM	0.00%	205.97%	0.00%				
O=C(NCc1ccco1)C1CCN(C(=O)c2ncn3c2COC(c2ccccc2)C3)CC1 (stereo not drawn) [NCGC00449791-01]	0.00%	5.56	-97.55%	0.00278 mM	0.00248 mM	0.00%	367.63%	0.00%				
O=C(NCc1cccs1)C1CCN(C(=O)c2ncn3c2COC(c2ccccc2)C3)CC1 (stereo not drawn) [NCGC00449792-01]	0.00%	5.51	-100.37%	0.00312 mM	0.00248 mM	0.00%	209.49%	17.67%				
CC(NC(=O)C1CCN(C(=O)c2ncn3c2COC(c2ccccc2)C3)CC1)c1ccc(F)cc1 (stereo not drawn) [NCGC00449793-01]	0.00%	5.16	-92.83%	0.00699 mM	0.00495 mM	0.00%	272.56%	0.00%				
O=C(NCCc1ccccc1)C1CCN(C(=O)c2ncn3c2COC(c2ccccc2)C3)CC1 (stereo not drawn) [NCGC00449794-01]	0.00%	5.66	-92.17%	0.00221 mM	0.00248 mM	0.00%	379.45%	0.00%				
O=C(NCCc1cccs1)C1CCN(C(=O)c2ncn3c2COC(c2ccccc2)C3)CC1 (stereo not drawn) [NCGC00449796-01]	0.00%	5.26	-97.05%	0.00555 mM	0.00442 mM	0.00%	316.37%	0.00%				
O=C(NCC1CC1)C1CCN(C(=O)c2ncn3c2COC(c2ccccc2)C3)CC1 (stereo not drawn) [NCGC00449799-01]	0.00%	5.11	-97.90%	0.00784 mM	0.007 mM	0.00%	355.70%	0.00%				
O=C(NCc1ccncc1)C1CCN(C(=O)c2ncn3c2COC(c2ccccc2)C3)CC1 (stereo not drawn) [NCGC00449800-01]	0.00%	6.01	-91.84%	0.00099 mM	0.00176 mM	0.00%	375.34%	0.00%				
O=C(NCc1cc(F)ccc1F)C1CCN(C(=O)c2ncn3c2COC(c2ccccc2)C3)CC1 (stereo not drawn) [NCGC00449804-01]	0.00%	5.41	-84.67%	0.00393 mM	0.00313 mM	0.00%	321.30%	16.31%				
O=C(NCc1ccncc1)C1CCN(C(=O)c2ncn3c2COC(c2ccc(F)cc2)C3)CC1 (stereo not drawn) [NCGC00449833-01]	-20.01%		-87.47%		0.0111 mM	0.00%	157.03%	0.00%			5.21	0.00623 mM
Cc1ccc(C2Cn3cnc(C(=O)N4CCC(C(=O)NCc5ccco5)CC4)c3CO2)cc1 (stereo not drawn) [NCGC00449893-01]	0.00%		-75.71%		0.00881 mM	0.00%	104.01%	0.00%			5.01	0.00988 mM
O=C(Nc1ccccc1)C1CCN(C(=O)c2ncn3c2COC(c2ccccc2)C3)CC1 (stereo not drawn) [NCGC00449901-01]	0.00%		-101.51%		0.00157 mM	0.00%	354.42%	0.00%			5.86	0.0014 mM
Cc1cccc(NC(=O)C2CCN(C(=O)c3ncn4c3COC(c3ccccc3)C4)CC2)c1 (stereo not drawn) [NCGC00449902-01]	0.00%		-97.06%		0.00248 mM	0.00%	372.05%	0.00%			5.66	0.00221 mM
Cc1ccc(NC(=O)C2CCN(C(=O)c3ncn4c3COC(c3ccccc3)C4)CC2)cc1 (stereo not drawn) [NCGC00449903-01]	0.00%		-93.84%		0.00176 mM	0.00%	343.11%	0.00%			5.61	0.00248 mM
